Here are results for three molecules from publication PMC8421423, “Cellular model system to dissect the isoform-selectivity of Akt inhibitors” (Nature Communications, 2021).

Several values for one entry are separate records, joined by “and”; a condition that tells them apart may be missing. Equal entries are not always repeated. Where two headings read alike, the source gives them in different places.

In one test the test system is pAkt1. As to the kind of experiment: Western blot analysis, PANC1 cells. The test is classed as cell-based, human. Particulars: PANC1, 24-h treatment.
Another test deals with Akt1 (Homo sapiens, UniProt P31749). As to the kind of experiment: PhosphoSens continuous fluorometric kinetic enzyme assay.
Test [1] has as its target T1, Akt2 (Homo sapiens, UniProt P31751). As to the kind of experiment: ESI-MS/MS of tryptic digest (modified cysteine residues). The test is classed as binding. Set-up: AKT2(2–447); His6 with TEV protease recognition site (N, cleaved yes); made in house; host or cells: Spodoptera frugiperda (Sf9). Particulars: 5-fold molar excess of inhibitor. On the procedure: ESI-MS/MS samples were prepared as stated above followed by steps of reduction, alkylation, and tryptic digest. The digested samples were stage tip-purified using C18 tips and according to a protocol described elsewhere. Subsequently, samples were thawed, dissolved in 20 μL of 0.1% TFA in water, sonicated at room temperature for 15 min, and centrifuged at 15,000×g for 1 min shortly before analysis. In all, 3 μL of sample were loaded onto a pre-column cartridge and desalted for 5 min using 0.1% TFA in water as eluent at a flow rate of 30 μL/min. The samples were back-flushed from the pre-column to the nano-HPLC column during the whole analysis. Elution was performed using a gradient starting at 5% B with a final composition of 30% B after 35 min (flow rate 300 nL/min) using 0.1% formic acid in water as eluent A and 0.1% formic acid in acetonitrile as eluent B and a column temperature of 40 °C. […] During the complete gradient cycle, a typical TOP10 shot-gun proteomics method for the MS and MS/MS analysis was used. For full scan MS experiments a mass range of m/z 300–1650 was scanned with a resolution of 70000. MS/MS experiments were followed by up to 10 high energy collision dissociation (HCD) MS/MS scans with a resolution of 17,500 of the most intense at least doubly charged ions. Data evaluation was performed using MaxQuant[50]. […]
Target sequence in this assay (P31751 2-447): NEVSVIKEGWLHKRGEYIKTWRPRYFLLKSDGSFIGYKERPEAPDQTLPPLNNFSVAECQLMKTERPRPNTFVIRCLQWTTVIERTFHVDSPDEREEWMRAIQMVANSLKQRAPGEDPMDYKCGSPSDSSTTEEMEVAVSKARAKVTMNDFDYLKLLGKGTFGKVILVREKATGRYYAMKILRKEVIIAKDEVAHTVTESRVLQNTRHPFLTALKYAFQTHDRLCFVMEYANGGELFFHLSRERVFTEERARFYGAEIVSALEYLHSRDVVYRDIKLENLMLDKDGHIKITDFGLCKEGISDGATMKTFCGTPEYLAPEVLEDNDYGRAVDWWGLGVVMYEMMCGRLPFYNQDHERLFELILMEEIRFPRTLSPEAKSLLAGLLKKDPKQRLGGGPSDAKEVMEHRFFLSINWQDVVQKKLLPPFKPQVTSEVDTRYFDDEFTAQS

In test [2] the target is Akt3 (Homo sapiens, UniProt Q9Y243). As to the kind of experiment: PhosphoSens continuous fluorometric kinetic enzyme assay.
Description: (§1) By addition of either 8 nM Akt1, 2 nM Akt2, or 5 nM Akt3 (final concentrations) the reactions were initiated. […] Afterwards the kobs-values were plotted versus the inhibitor concentrations [I] and then fit to the following hyperbolic Eq.
Test [3] deals with T1, Akt2. The test is described as above.
Target sequence in this assay (P31751 whole entry): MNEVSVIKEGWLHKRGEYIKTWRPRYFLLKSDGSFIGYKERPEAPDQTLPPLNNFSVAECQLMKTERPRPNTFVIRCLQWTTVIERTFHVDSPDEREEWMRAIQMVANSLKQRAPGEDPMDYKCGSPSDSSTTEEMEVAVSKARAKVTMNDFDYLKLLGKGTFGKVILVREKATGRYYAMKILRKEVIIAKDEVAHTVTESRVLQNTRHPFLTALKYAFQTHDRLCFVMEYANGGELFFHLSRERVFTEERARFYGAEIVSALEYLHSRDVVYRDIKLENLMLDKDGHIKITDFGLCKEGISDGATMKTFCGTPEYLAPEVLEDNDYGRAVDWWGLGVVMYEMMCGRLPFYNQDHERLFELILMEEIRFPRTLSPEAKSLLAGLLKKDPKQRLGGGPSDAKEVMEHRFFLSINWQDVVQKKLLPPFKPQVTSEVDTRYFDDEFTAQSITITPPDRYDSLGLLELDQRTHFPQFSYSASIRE
Description: as §1
Test [4] concerns the target T2, Akt3 (Homo sapiens, UniProt Q9Y243, E113A/E114A/E115A).
T2 construct: AKT3(2–443, E114/115/116A); His6 with TEV protease recognition site (N, cleaved yes); made in house; host or cells: Spodoptera frugiperda (Sf9)
As to the kind of experiment: ESI-MS/MS of tryptic digest (modified cysteine residues). The test is classed as binding. The note with it: 5-fold molar excess of inhibitor. How it is done:
ESI-MS/MS samples were prepared as stated above followed by steps of reduction, alkylation, and tryptic digest. The digested samples were stage tip-purified using C18 tips and according to a protocol described elsewhere. Subsequently, samples were thawed, dissolved in 20 μL of 0.1% TFA in water, sonicated at room temperature for 15 min, and centrifuged at 15,000×g for 1 min shortly before analysis. In all, 3 μL of sample were loaded onto a pre-column cartridge and desalted for 5 min using 0.1% TFA in water as eluent at a flow rate of 30 μL/min. The samples were back-flushed from the pre-column to the nano-HPLC column during the whole analysis. Elution was performed using a gradient starting at 5% B with a final composition of 30% B after 35 min (flow rate 300 nL/min) using 0.1% formic acid in water as eluent A and 0.1% formic acid in acetonitrile as eluent B and a column temperature of 40 °C. […] During the complete gradient cycle, a typical TOP10 shot-gun proteomics method for the MS and MS/MS analysis was used. For full scan MS experiments a mass range of m/z 300–1650 was scanned with a resolution of 70000. MS/MS experiments were followed by up to 10 high energy collision dissociation (HCD) MS/MS scans with a resolution of 17,500 of the most intense at least doubly charged ions. Data evaluation was performed using MaxQuant[50]. Spectra were searched against the specific Akt sequence and a contamination database using a false discovery rate of 1% on peptide and protein level using a decoy database for determination of the false discovery rate. For database search oxidation of methionine and N-terminal acetylation of proteins, carbamidomethylation of cysteines, and artificial modification of cysteines were defined as variable modifications.

Setting [5] is: Ki Akt3, Mean, mean of replicates.
Setting [6] is: Ki Akt3, individual determinations, single replicates.
The mark [7] stands for this setting: read-out: kinact /Ki Akt3, individual determinations, single replicates.
The mark [8] stands for this setting: read-out: kinact Akt3, Mean, mean of replicates.
[9] abbreviates: read-out: kinact Akt3, individual determinations, single replicates.
Where [10] appears, read: Ki Akt2, Mean, mean of replicates.
Setting [11] is: Ki Akt2, individual determinations, single replicates.
Where [12] appears, read: read-out: kinact Akt2, individual determinations, single replicates.

Chain of Akt1 (P31749 whole entry): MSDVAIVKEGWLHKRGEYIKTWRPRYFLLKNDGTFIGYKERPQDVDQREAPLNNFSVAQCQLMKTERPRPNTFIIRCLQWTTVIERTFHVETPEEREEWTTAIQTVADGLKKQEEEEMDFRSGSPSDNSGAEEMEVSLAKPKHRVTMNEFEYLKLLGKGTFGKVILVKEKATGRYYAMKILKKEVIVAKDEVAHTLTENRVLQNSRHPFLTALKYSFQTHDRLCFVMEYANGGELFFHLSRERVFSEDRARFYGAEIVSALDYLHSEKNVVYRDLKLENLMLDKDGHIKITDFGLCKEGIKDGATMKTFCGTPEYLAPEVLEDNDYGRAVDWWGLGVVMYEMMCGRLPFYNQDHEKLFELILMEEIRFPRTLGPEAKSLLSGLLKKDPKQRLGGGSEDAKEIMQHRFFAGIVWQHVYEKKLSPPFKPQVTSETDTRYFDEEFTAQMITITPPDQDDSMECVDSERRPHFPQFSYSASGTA
Chain of Akt3 (Homo sapiens, UniProt Q9Y243) (Q9Y243 whole entry): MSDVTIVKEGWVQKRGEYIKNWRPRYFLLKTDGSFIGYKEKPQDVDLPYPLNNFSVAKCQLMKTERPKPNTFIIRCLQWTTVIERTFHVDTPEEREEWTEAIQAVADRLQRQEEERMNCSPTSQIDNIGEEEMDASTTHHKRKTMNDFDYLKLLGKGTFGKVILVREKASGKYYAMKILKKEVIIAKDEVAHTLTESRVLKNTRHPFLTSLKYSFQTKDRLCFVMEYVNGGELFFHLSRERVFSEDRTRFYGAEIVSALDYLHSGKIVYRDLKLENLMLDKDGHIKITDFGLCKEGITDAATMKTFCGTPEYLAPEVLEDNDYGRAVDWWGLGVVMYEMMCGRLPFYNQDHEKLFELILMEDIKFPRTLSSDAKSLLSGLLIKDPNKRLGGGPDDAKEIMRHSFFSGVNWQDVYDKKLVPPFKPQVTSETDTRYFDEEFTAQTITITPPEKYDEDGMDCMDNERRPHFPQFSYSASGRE
T2 sequence (Q9Y243 2-443 E113A/E114A/E115A): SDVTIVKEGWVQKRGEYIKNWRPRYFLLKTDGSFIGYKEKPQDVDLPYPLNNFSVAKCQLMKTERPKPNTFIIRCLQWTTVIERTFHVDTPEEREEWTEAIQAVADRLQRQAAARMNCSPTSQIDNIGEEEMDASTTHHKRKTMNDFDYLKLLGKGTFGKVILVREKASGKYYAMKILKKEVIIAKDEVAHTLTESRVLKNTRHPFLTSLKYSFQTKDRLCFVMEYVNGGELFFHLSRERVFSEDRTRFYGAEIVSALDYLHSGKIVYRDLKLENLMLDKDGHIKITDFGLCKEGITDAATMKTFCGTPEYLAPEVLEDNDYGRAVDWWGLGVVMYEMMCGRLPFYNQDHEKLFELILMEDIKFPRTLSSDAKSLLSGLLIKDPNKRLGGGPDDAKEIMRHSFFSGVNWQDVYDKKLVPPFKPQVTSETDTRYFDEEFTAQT

Consider `C=CC(=O)Nc1ccc2[nH]c(=O)n(C3CCN(Cc4ccc(-c5ncccc5-c5ccccc5)cc4)CC3)c2c1` [compound 1], for which the “pAkt1 level (immunoblot)” value with pAkt1 was “downregulation of pAkt1 and pAkt2”. The Ki at Akt1 (Ki Akt1) is 6 ± 2 nM; at Akt1 (Ki Akt1, Mean, mean of replicates), 5.77 nM; on Akt1 (Ki Akt1, individual determinations, single replicates), 3.95 nM and 5.28 nM and 8.08 nM. Besides, the kinact/KI on Akt1 (read-out: kinact /Ki Akt1) turned out to be 38000 ± 10000 M⁻¹ s⁻¹; on Akt1 (read-out: kinact /Ki Akt1, Mean, mean of replicates) it was 36000 M⁻¹ s⁻¹; at Akt1 (read-out: kinact /Ki Akt1, individual determinations, single replicates) it was 36000 M⁻¹ s⁻¹. The kinact was 0.0002 s⁻¹ on Akt1 (read-out: kinact Akt1) and 0.00015 s⁻¹ at Akt1 (read-out: kinact Akt1, individual determinations, single replicates). Further, at Akt1 (single replicates), the “kinact Akt1, individual determinations” value was 0.015 min⁻¹ and 0.011 min⁻¹.

Consider `C=CC(=O)Nc1ccc2[nH]c(=O)n(C3CCN(Cc4ccc(-c5ncc(Cc6cn[nH]c6)cc5-c5ccccc5)cc4)CC3)c2c1` [compound 14], for which the “pAkt1 level (immunoblot)” value in the test on pAkt1 is “pAkt1 signal remained stable”. Besides, at Akt2 [1], the “modified cysteine residues in Akt2 (MS/MS)” value is “Cys297, Cys311, and Cys124”. For the same molecule, the Ki was 29 ± 4 nM on Akt3 [2] (Ki Akt3); 29.3 nM at Akt3 [2] (setting [5]); 35.5 nM and 27.7 nM and 30 nM and 24.2 nM at Akt3 [2] (setting [6]); 11 ± 2 nM at Akt2 [3] (Ki Akt2); 10.4 nM at Akt2 [3] (setting [10]); 13.2 nM and 8 nM and 9.9 nM at Akt2 [3] (setting [11]). The kinact/KI at Akt3 [2] (read-out: kinact /Ki Akt3) is 13000 ± 2000 M⁻¹ s⁻¹; at Akt3 [2] (setting [7]) it was 11000 M⁻¹ s⁻¹; on Akt2 [3] (read-out: kinact /Ki Akt2), 25000 ± 6000 M⁻¹ s⁻¹; at Akt2 [3] (read-out: kinact /Ki Akt2, individual determinations, single replicates), 15000 M⁻¹ s⁻¹. In addition, the inactivation rate constant (kinact) at Akt3 [2] (read-out: kinact Akt3) is 0.000367 s⁻¹; at Akt3 [2] (setting [8]) it was 0.000367 s⁻¹; on Akt3 [2] (setting [9]), 0.0004 s⁻¹; on Akt2 [3] (read-out: kinact Akt2), 0.000267 s⁻¹; on Akt2 [3] (read-out: kinact Akt2, Mean, mean of replicates) it was 0.00025 s⁻¹; at Akt2 [3] (setting [12]), 0.0002 s⁻¹. Further, the “kinact Akt3, individual determinations” value on Akt3 [2] (single replicates) was 0.023 min⁻¹ and 0.019 min⁻¹ and 0.022 min⁻¹. Also, the “kinact Akt2, individual determinations” value on Akt2 [3] (single replicates) was 0.015 min⁻¹ and 0.017 min⁻¹.

For `C=CC(=O)Nc1ccc2[nH]c(=O)n(C3CCN(Cc4ccc(-c5ncc(Cc6ccc(N)nc6)cc5-c5ccccc5)cc4)CC3)c2c1` [compound 20], the “modified cysteine residues in Akt3 (MS/MS)” value at Akt3 [4] is reported as “Cys293”. Moreover, the “kobs (mean)” value on Akt3 [2] (Akt3 + 20, concentration 2.5 nM) is 5.68e-05 s⁻¹; on Akt3 [2] (Akt3 + 20, concentration 4.9 nM), 4.71e-05 s⁻¹; at Akt3 [2] (Akt3 + 20, concentration 9.9 nM), 8.01e-05 s⁻¹; at Akt3 [2] (Akt3 + 20, concentration 39.5 nM), 0.00023 s⁻¹; at Akt3 [2] (Akt3 + 20, concentration 123.8 nM) it was 0.000418 s⁻¹; at Akt3 [2] (Akt3 + 20, concentration 247.5 nM), 0.000431 s⁻¹. On Akt3 [2] (Akt3 + 20, concentration 371.3 nM), the “kobs (mean)” value turned out to be 0.000653 s⁻¹. Also, the Ki on Akt3 [2] (Ki Akt3) is 53 ± 4 nM; on Akt3 [2] (setting [5]) it was 70.1 nM; on Akt3 [2] (setting [6]) it was 71.5 nM and 73.4 nM and 65.4 nM; on Akt2 [3] (Ki Akt2) it was 95 ± 14 nM; at Akt2 [3] (setting [10]) it was 94.4 nM; at Akt2 [3] (setting [11]), 98.6 nM and 101 nM and 71.2 nM and 107 nM. In addition, the kinact/KI at Akt3 [2] (read-out: kinact /Ki Akt3) stood at 10000 ± 3000 M⁻¹ s⁻¹; at Akt3 [2] (read-out: kinact /Ki Akt3, Mean, mean of replicates), 11000 M⁻¹ s⁻¹; at Akt3 [2] (setting [7]) it was 8000 M⁻¹ s⁻¹; at Akt2 [3] (read-out: kinact /Ki Akt2), 4000 ± 1000 M⁻¹ s⁻¹; at Akt2 [3] (read-out: kinact /Ki Akt2, Mean, mean of replicates) it was 4000 M⁻¹ s⁻¹. The kinact at Akt3 [2] (read-out: kinact Akt3) was 0.000733 s⁻¹; on Akt3 [2] (setting [8]), 0.000767 s⁻¹; on Akt3 [2] (setting [9]) it was 0.00055 s⁻¹; at Akt2 [3] (read-out: kinact Akt2), 0.00035 s⁻¹; at Akt2 [3] (setting [12]), 0.000383 s⁻¹. For the same molecule, at Akt3 [2] (single replicates), the “kinact Akt3, individual determinations” value came to 0.061 min⁻¹. Also, the “kinact Akt2, individual determinations” value on Akt2 [3] (single replicates) is 0.025 min⁻¹ and 0.022 min⁻¹ and 0.015 min⁻¹.
